Among the data in ChEMBL document CHEMBL1135304, “Benzimidazole-based fXa inhibitors with improved thrombin and trypsin selectivity” (Bioorg Med Chem Lett, 2002) are Ki values, retold here.

One experiment deals with Coagulation factor X (Homo sapiens, UniProt P00742). Description: Tested in vitro for the inhibitory potency against Coagulation factor Xa.
For a further experiment, the target named is Prothrombin (Homo sapiens, UniProt P00734). Description: Tested in vitro for the selectivity against thrombin (IIa).
In another experiment the target is Serine protease 1 (Homo sapiens, UniProt P07477). Description: Tested in vitro for the selectivity against trypsin (Trp).

A word on the Ki: it is a dissociation constant, usually derived from enzyme kinetics or from competition with a known ligand.

Chain of Coagulation factor X (P00742 41-179 limits assumed): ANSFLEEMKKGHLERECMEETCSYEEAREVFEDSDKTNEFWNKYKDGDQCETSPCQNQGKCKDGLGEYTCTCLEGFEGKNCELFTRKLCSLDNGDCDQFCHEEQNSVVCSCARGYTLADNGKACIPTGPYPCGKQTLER
Chain of Coagulation factor X (P00742 235-488 limits assumed): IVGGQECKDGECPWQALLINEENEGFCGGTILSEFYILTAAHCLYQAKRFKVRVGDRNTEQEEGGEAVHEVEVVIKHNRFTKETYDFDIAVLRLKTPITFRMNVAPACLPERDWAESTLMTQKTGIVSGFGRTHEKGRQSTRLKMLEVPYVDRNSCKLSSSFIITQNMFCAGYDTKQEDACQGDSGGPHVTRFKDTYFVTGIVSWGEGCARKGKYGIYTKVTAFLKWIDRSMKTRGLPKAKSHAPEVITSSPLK
Chain of Serine protease 1 (P07477 whole entry): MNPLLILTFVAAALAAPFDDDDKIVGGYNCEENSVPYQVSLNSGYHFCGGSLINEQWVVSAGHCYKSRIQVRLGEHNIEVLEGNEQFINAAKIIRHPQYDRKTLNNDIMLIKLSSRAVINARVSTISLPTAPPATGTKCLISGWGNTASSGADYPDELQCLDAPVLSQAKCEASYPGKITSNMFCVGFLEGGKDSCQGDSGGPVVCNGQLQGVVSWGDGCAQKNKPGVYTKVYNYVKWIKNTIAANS

Regarding `CCc1nc2c([N+](=O)[O-])c(OC3CCN(C(C)=N)CC3)ccc2n1Cc1ccc2ccc(C(=N)N)cc2c1`, the values for the Ki on Coagulation factor X, at Prothrombin and at Serine protease 1 were 0.1 nM, 3000 nM and 5 nM, respectively.

`CCc1nc2cc(OC3CCN(C(C)=N)CC3)ccc2n1Cc1cccc(-c2cccc(C(=N)N)c2)c1`: the inhibition constant (Ki) was determined as 1120 nM on Prothrombin and 67 nM at Serine protease 1.

For `CCc1nc2cc(OC3CCN(C(C)=N)CC3)ccc2n1Cc1ccc(-c2cccc(C(=N)N)c2)cc1`, the Ki is 17 nM at Coagulation factor X, 210 nM on Prothrombin and 140 nM at Serine protease 1.

Take `CCc1nc2cc(OC3CCN(C(C)=N)CC3)ccc2n1Cc1ccc(-c2ccc(C(=N)N)cc2)cc1`: the Ki on Coagulation factor X came out at 670 nM; on Prothrombin, 1500 nM; at Serine protease 1 it was 150 nM.

Turning to `CCc1nc2ccc(OC3CCN(C(C)=N)CC3)cc2n1Cc1ccc(-c2cccc(C(=N)N)c2)cc1`, the Ki on Coagulation factor X was 2.2 nM; on Prothrombin, 770 nM; at Serine protease 1, 73 nM.

In the case of `CCc1nc2ccc(OC3CCN(C(C)=N)CC3)cc2n1Cc1cccc(-c2ccc(C(=N)N)cc2)c1`, the Ki at Coagulation factor X amounted to 150 nM; at Prothrombin, 3600 nM; on Serine protease 1, 430 nM.

With `CCc1nc2c(N(C)C)c(OC3CCN(C(C)=N)CC3)ccc2n1Cc1ccc2ccc(C(=N)N)cc2c1`, the Ki at Coagulation factor X was 5 nM; at Prothrombin, over 5000 nM; on Serine protease 1 it was 10 nM.

With `CCc1nc2cc(OC3CCN(C(C)=N)CC3)ccc2n1Cc1cccc(-c2ccc(C(=N)N)cc2)c1`, the Ki was 260 nM at Coagulation factor X, over 5000 nM at Prothrombin and 690 nM on Serine protease 1.

`CCc1nc2cc(OC3CCN(C(C)=N)CC3)ccc2n1Cc1ccc2ccc(C(=N)N)cc2c1`: the Ki on Prothrombin is 2000 nM; at Serine protease 1, 5 nM.

With `CC(=N)N1CCC(Oc2ccc3c(nc(C(C)C)n3Cc3ccc4ccc(C(=N)N)cc4c3)c2[N+](=O)[O-])CC1`, the Ki on Coagulation factor X is 0.2 nM; at Prothrombin, over 5000 nM; at Serine protease 1, 3 nM.

As for `CCc1nc2c(NC(C)=O)c(OC3CCN(C(C)=N)CC3)ccc2n1Cc1ccc2ccc(C(=N)N)cc2c1`, the Ki is 50 nM at Coagulation factor X, over 5000 nM on Prothrombin and 25 nM at Serine protease 1.

As to `CCc1nc2c(N)c(OC3CCN(C(C)=N)CC3)ccc2n1Cc1ccc2ccc(C(=N)N)cc2c1`, the Ki at Coagulation factor X stood at 8 nM; on Prothrombin, 3500 nM; on Serine protease 1, 24 nM.

For the compound `CC(=N)N1CCC(Oc2ccc3c(nc(C)n3Cc3ccc4ccc(C(=N)N)cc4c3)c2[N+](=O)[O-])CC1`, the Ki at Prothrombin is over 5000 nM; at Serine protease 1 it was 3 nM.

On to `CCc1nc2ccc(OC3CCN(C(C)=N)CC3)cc2n1Cc1ccc(-c2ccc(C(=N)N)cc2)cc1`, for which the Ki was 180 nM on Coagulation factor X, 22 nM at Prothrombin and 91 nM on Serine protease 1.

On to `CCc1nc2ccc(OC3CCN(C(C)=N)CC3)cc2n1Cc1cccc(-c2cccc(C(=N)N)c2)c1`, for which the Ki was 34 nM at Coagulation factor X, 190 nM at Prothrombin and 190 nM at Serine protease 1.

Take `CCc1nc2c(N(CC(=O)O)CC(=O)O)c(OC3CCN(C(C)=N)CC3)ccc2n1Cc1ccc2ccc(C(=N)N)cc2c1`: the results for the Ki on Coagulation factor X, on Prothrombin and on Serine protease 1 were 50 nM, over 5000 nM and 15 nM, respectively.
